The text below walks through data of ChEMBL document CHEMBL1201862, “PubChem BioAssay data set” (2004).

Assay [1] is described as follows: cells. The assay is classed as functional, cell-based.
Assay [2] in a line: cells. It is filed as functional, cell-based. The source holds these as a separate data set.
For assay [3], the target named is FAD-linked sulfhydryl oxidase ALR (Homo sapiens, UniProt P55789). In words: ALR-catalysed DTT oxidation blockers – biochemical, H2O2 detection, luminescence, cherry-pick, dose response (AID 493248).
FAD-linked sulfhydryl oxidase ALR, sequence (P55789 whole entry): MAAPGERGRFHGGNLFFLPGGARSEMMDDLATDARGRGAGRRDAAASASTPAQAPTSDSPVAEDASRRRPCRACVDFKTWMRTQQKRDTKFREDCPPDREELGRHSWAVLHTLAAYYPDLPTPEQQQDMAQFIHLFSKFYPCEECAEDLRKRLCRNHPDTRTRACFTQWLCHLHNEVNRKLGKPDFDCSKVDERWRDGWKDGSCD
For assay [4], the target named is T1, Rac GTPase-activating protein 1 (Homo sapiens, UniProt Q9H0H5).
T1 sequence (Q9H0H5 whole entry): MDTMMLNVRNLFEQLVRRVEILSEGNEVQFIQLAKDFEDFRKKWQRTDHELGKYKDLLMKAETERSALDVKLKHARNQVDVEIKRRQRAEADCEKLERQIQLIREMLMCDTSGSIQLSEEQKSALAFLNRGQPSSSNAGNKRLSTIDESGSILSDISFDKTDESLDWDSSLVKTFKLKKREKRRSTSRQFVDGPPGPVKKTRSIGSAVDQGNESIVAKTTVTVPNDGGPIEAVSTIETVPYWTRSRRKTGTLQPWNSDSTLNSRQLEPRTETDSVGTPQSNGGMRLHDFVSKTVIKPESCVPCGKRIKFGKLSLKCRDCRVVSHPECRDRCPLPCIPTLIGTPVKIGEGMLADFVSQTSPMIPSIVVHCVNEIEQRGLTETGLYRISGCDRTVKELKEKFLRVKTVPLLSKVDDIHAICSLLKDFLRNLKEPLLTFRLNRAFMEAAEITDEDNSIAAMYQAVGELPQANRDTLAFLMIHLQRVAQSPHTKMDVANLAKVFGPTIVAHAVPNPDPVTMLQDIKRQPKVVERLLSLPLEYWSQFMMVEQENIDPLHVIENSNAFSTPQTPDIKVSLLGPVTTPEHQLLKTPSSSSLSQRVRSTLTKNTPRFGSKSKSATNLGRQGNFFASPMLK
Put plainly: blockers of MgcRacGAP-driven Rac1 GTP hydrolysis – biochemical, ADP Hunter fluorescence, primary and confirmatory, confirmation (AID 624330). The assay is classed as functional.

Assay [5] can be described thus: viability of PTEN-deleted HCT116 cells – cell-based, HCT116 PTEN knockout, dose response (AID 1047).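 Note: HCT116 colon tumor cells with PTEN knocked out; cells exposed to compound for 60 hours before readout; potency for loss of cell viability measured by luminescence.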 The assay is classed as functional.
A short description of assay [6]: viability of HCT116 lacking mutant beta-catenin – cell-based, human colon tumor, dose response (AID 1045).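 Note: HCT116 colon tumor cells with beta catenin knocked out; cells exposed to compound for 60 hours.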 It is filed as functional.
In assay [7] the target is T2, Fatty acid synthase (Homo sapiens, UniProt P49327). Put plainly: inhibition of human FAS-TE enzyme activity – biochemical, endpoint fluorescence intensity, uHTS hits, dose response (AID 624327).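 Note: fluorescence from hydrolysis of an O-methyl fluorescein acyl ester substrate by the enzyme.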 It is filed as functional.
T2 sequence (P49327 whole entry): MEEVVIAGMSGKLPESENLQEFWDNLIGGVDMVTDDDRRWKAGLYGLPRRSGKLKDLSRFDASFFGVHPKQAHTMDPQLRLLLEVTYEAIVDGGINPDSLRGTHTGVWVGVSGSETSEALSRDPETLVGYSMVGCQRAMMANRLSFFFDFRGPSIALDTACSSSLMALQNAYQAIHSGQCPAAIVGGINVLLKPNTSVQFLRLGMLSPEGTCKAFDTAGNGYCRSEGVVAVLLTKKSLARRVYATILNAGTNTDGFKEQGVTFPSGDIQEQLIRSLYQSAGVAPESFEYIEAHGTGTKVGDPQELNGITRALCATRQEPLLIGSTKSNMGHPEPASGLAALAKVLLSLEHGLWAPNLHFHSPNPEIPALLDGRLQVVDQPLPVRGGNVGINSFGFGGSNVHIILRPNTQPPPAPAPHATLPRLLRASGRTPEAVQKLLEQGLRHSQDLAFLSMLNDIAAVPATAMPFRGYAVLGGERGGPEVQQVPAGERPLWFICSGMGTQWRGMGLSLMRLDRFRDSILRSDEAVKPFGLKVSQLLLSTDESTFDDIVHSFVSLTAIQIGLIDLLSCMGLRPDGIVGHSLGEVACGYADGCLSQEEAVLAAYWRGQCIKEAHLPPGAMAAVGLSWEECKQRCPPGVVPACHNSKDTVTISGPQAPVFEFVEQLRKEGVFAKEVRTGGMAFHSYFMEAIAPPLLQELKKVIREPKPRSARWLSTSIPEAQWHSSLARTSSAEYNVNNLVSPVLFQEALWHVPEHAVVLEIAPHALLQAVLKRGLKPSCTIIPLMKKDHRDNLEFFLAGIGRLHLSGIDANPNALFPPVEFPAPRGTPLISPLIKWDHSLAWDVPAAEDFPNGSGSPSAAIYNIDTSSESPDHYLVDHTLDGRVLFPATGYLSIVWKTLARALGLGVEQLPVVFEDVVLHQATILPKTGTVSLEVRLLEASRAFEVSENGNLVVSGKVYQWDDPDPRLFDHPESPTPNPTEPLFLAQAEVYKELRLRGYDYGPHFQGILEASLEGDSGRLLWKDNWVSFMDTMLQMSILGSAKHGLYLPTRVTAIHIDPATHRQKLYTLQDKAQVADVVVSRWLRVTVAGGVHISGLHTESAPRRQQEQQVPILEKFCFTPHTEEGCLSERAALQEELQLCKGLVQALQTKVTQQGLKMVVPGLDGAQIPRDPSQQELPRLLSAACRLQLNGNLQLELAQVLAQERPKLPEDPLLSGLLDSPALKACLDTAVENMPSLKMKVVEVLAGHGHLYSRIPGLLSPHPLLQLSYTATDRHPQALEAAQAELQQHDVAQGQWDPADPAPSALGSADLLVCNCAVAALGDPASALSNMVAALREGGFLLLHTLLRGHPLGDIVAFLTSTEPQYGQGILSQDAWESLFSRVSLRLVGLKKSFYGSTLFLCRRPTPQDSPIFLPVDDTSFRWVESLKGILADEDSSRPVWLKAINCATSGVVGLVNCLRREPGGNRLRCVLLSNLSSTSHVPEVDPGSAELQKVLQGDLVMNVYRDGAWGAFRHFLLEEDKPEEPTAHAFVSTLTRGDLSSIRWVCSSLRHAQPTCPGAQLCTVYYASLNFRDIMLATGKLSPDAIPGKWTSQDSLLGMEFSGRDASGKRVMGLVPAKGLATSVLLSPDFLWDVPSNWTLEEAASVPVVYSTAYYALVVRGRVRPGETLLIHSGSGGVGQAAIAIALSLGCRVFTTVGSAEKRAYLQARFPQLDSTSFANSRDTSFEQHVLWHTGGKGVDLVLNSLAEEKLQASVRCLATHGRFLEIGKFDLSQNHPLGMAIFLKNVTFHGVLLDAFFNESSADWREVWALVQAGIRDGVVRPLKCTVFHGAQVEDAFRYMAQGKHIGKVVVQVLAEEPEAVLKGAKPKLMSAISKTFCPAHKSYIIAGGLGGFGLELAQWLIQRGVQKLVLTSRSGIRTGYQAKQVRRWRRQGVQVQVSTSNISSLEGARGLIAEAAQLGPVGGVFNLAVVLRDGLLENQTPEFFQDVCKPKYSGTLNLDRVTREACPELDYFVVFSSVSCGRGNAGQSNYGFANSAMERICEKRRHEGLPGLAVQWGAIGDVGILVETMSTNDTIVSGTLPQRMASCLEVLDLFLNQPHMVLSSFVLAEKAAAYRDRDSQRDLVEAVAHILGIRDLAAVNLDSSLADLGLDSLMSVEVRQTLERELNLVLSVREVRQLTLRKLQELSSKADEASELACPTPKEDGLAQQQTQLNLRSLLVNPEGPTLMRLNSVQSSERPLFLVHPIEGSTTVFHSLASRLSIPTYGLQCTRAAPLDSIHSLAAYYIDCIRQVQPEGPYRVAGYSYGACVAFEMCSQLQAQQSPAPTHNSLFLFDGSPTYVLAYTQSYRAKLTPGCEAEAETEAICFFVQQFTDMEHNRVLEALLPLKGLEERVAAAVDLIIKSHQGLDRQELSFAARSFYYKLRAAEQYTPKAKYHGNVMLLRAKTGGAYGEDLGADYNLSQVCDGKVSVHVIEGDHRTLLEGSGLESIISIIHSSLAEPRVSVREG
Assay [8] addresses T2, Fatty acid synthase. Put plainly: inhibition of human FAS-TE enzyme activity – biochemical, kinetic fluorescence intensity, dose response (AID 624326).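 Note: rate of fluorescence rise from hydrolysis of a fluorogenic O-methyl fluorescein ester substrate.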 The assay is classed as functional.
Assay [9] has as its target T3, Corticotropin-releasing factor receptor 2/Corticotropin-releasing factor-binding protein (Homo sapiens, UniProt P24387+Q13324).
T3 sequence (Q13324 whole entry): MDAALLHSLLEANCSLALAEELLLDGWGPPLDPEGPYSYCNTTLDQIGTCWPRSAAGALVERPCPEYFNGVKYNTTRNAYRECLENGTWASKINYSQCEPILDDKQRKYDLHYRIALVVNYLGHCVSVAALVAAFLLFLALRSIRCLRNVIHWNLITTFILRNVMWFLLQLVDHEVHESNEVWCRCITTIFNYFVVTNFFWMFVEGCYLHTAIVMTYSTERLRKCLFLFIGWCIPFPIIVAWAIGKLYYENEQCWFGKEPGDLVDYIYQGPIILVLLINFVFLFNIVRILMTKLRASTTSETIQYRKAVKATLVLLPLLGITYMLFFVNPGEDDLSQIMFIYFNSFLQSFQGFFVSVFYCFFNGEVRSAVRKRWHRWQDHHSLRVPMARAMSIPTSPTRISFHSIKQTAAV
T3 sequence (P24387 whole entry): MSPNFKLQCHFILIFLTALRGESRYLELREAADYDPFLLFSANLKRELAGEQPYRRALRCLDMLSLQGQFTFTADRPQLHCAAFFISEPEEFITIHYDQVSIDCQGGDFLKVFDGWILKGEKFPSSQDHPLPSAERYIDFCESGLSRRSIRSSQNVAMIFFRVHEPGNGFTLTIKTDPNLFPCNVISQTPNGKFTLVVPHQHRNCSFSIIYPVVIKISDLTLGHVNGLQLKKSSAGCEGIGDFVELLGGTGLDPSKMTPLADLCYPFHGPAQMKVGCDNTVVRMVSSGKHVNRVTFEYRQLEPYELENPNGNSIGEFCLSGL
In words: activators of CRF receptor 2 with binding protein – uHTS hits, confirmation (AID 602473). The note with it: read-out: EC50_Mean. The assay is classed as functional.

Assay [10] in a line: cells. It is filed as functional.
The nature of assay [11]: Luminescence Cell-Based Dose Retest to Confirm Inhibitors of Cancer Stem Cells. [Related pubchem assays (depositor defined):AID2717, AID2721]. It is filed as functional. The following applies: Homo sapiens.
A further assay has as its system Vero. Put plainly: cells. It is filed as functional. The following applies: Chlorocebus sabaeus.
The next assay concerns the target Paired box protein Pax-8 (Homo sapiens, UniProt Q06710). Put plainly: PAX8 transcriptional activity inhibition in RMG-I – RMG-I cells, luciferase, cherry-pick, dose response (AID 687027).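 Note: luciferase reporter driven by Pax8 target thyroperoxidase promoter measured by SteadyGlo luminescence.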 The assay is classed as functional, cell-based.
The nature of assay [12]: A549 cell cytotoxicity, dose response, cytotoxicity control, plate reader, cherry-pick, antagonist series (AID 743412). It is filed as functional, cell-based.
The nature of assay [13]: toxicity toward HepG2 liver cells – cell-based, plate reader, cherry-pick, antagonist series, cytotoxicity control, dose response (AID 743416). The assay is classed as functional.
A short description of assay [14]: blockade of melanocortin 4 receptor signaling – cell-based, plate reader, cherry pick, counter-screen for LGR2 antagonist project, dose response (AID 743444).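 Note: transfected HEK 293 cells stimulated with alpha-MSH peptide; potency of inhibitors of the alpha-MSH evoked signal.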 It is filed as functional.

The source made the active and inactive calls.

Paired box protein Pax-8, sequence (Q06710 whole entry): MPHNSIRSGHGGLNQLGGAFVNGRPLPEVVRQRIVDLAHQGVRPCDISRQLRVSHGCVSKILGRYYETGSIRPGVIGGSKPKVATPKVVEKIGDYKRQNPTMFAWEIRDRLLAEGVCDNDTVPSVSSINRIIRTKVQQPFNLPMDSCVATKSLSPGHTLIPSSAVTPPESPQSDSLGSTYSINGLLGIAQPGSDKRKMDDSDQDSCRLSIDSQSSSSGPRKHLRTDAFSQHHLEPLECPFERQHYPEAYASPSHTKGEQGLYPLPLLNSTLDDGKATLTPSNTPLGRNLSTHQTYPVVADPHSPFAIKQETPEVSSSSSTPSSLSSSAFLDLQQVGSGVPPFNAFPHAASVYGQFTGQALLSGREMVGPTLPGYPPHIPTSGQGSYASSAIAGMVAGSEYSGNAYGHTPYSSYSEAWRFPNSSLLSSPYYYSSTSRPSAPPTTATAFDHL

For the compound `COc1ccc(C(CC(=O)Nc2ccccc2OC)n2cccc2)cc1` (centres undefined), the EC50 in “cells [1]” was > 350 µM (not active); in “cells [2]”, 2.27 µM (active).

In the case of `O=[N+]([O-])c1cccc(CN2CCN(c3cccc4[nH]ccc34)CC2)c1`, the concentration at half-maximal activity (AC50) in assay [3] was 2.06 µM (active). Moreover, the IC50 in assay [4] is 45.4 µM (active).

On to `CC(C)CCn1c(SCCc2ccccc2)nc2c1c(=O)[nH]c(=O)n2C`, for which the figures for the EC50 in assay [5] and in assay [6] were 30.9 µM (active) and 35.6 µM (active), respectively.

On to `CC(Cc1ccccc1)NC(=O)c1cc([N+](=O)[O-])ccc1Cl` (centres undefined), for which the IC50 at Fatty acid synthase [7] is 5.69 µM (active); on Fatty acid synthase [8], 5.85 µM (active).

As for `Cc1cccc(OCCn2cccc2/C=C2/C(=O)NC(=O)N(Cc3ccco3)C2=O)c1`, the EC50 in “cells [1]” and in the assay “cells [2]” was > 350 µM (not active) each time.

In the case of `Cc1noc(/C=C/c2ccco2)c1S(=O)(=O)N1CCC(C(=O)N2CCc3ccccc3C2)CC1`, the EC50 is 24.8 µM (active) in assay [5] and 26.9 µM (active) in [6].

Regarding `Cc1ccc(NS(=O)(=O)c2ccc(C(=O)N3CCCC(C(F)(F)F)C3)cc2)cc1` (centres undefined), the EC50 in assay [9] was 5.17 µM (active).

For the compound `CC(C)(C)N1C(=O)[C@H]2[C@@H](c3ccc(Br)cc3)N3C(=O)N(c4ccc(Br)cc4)C(=O)[C@@]3(Cc3ccccc3)[C@H]2C1=O`, the half-maximal inhibitory concentration (IC50) at Fatty acid synthase [7] was 10.3 µM (active); on Fatty acid synthase [8], 10.5 µM (active).

As for `Cc1cccc(Oc2ccc(NC(=O)c3ccccc3C(=O)O)cc2)c1`, in assay [3], the AC50 is 5.07 µM (active).

Turning to `O=C(CSc1nnc(SCc2cccc3ccccc23)s1)N=Nc1c(O)[nH]c2ccccc12`, the figures for the EC50 in assay [5] and in assay [6] were 13.6 µM (active) and 10.8 µM (active), respectively.

As for `Cc1cccc(NC(=O)COc2ccc(Br)cc2)n1`, in “cells [10]”, the IC50 is 23.4 µM (active).

Turning to `Cc1sc2nc(CN3CCCC3)nc(Cl)c2c1C`, the figures for the EC50 in assay [5] and in [6] were 16.2 µM (active) and 11.2 µM (active), respectively.

For `COc1ccc(-c2csc3nc(-c4ccccc4F)oc(=O)c23)cc1`, the 50% inhibitory concentration (IC50) on Fatty acid synthase [7] is 2.83 µM (active); on Fatty acid synthase [8], 1.16 µM (active).

For the compound `COC(=O)C1CSC(C(=O)OC)N1C(=O)CN1CCN(c2ccccc2)CC1` (centres undefined), the half-maximal activity concentration (AC50) in assay [3] was 2.84 µM (active).

Consider `CCCCn1c(NC(C)CC)nc2c1c(=O)[nH]c(=O)n2C` (centres undefined), for which, in assay [3], the AC50 is 4.01 µM (active).

On to `COc1cc(C(=O)NCC(c2cccnc2)N2CCN(c3ccccc3)CC2)cc(OC)c1OC` (centres undefined), for which the half-maximal activity concentration (AC50) in assay [3] is 3.41 µM (active).

As to `COc1ccc(CNC(=O)/C=C/c2cc([N+](=O)[O-])ccc2OC(F)F)cc1OC`, the IC50 on Fatty acid synthase [8] was 3.28 µM (active).

Turning to `COc1cc(N(C(=O)Cc2cccs2)C(C(=O)NC2CCCCC2)c2ccc(C)cc2)ccc1-n1cnnn1` (centres undefined), the results for the EC50 in [5] and in assay [6] were 8.44 µM (active) and 8.86 µM (active), respectively.

As for `COc1ccc(NC(=O)Nc2ccc(Br)cn2)cc1`, the EC50 in the assay “cells [1]” and in the assay “cells [2]” was > 350 µM (not active) in each case.

As for `COc1cccc(NC(=S)N(CCCN2CCOCC2)Cc2cn(C)c3ccccc23)c1`, the EC50 in “cells [1]” and in the assay “cells [2]” was > 350 µM (not active) in each case.

Take `Cc1ccc(-c2nc(Nc3cccc(C)c3)sc2CC(=O)O)cc1`: the half-maximal activity concentration (AC50) in assay [3] is 9.95 µM (active).

As to `Cn1c(CNc2ccc(Br)cc2)nc2ccccc21`, the AC50 in assay [3] is 14.6 µM (active).

`Cc1nnc2sc(SCc3cccc(Cl)c3)nn2c1=O`: the AC50 in assay [11] is 34.2 µM (active); in assay [3], 0.175 µM (active).

Regarding `O=C(Nc1nc2ccc([N+](=O)[O-])cc2s1)c1c(F)cccc1F`, the results for the EC50 in the assay “cells [1]” and in “cells [2]” were > 350 µM (not active) and 31.2 µM (active), respectively.

`CC1(C)CC(=O)CC(C2(O)C(=O)N(Cc3ccccc3)c3ccccc32)O1` (centres undefined): the EC50 in assay [5] was 17.7 µM (active); in [6], 17.4 µM (active).

With `Cc1cccc(C)c1NC(=O)NCCCN1CCN(c2ccccc2)CC1`, in [3], the AC50 is 89.4 µM (active).

`O=[N+]([O-])c1cc(-c2csc(NCCc3nc4cc(Cl)c(Cl)cc4n3CCCO)n2)ccc1Cl`: the 50% inhibitory concentration (IC50) is 2.49 µM (active) on Fatty acid synthase [7] and 2.55 µM (active) on Fatty acid synthase [8].

For `CCc1nonc1NC(=O)COc1ccc(Cl)c(C)c1`, the IC50 in “cells [10]” was 17 µM (active).

`O=C(CCc1ccccc1)N1CCN(c2ccc(F)cc2)CC1`: in assay [3], the AC50 is 13.8 µM (active).

For the compound `C[C@H](CO)N1C[C@H](C)[C@@H](CN(C)C(=O)Nc2ccccc2)Oc2c(NC(=O)Nc3ccc(C(F)(F)F)cc3)cccc2C1=O`, the figures for the half-inhibitory concentration (IC50) at Fatty acid synthase [7] and at Fatty acid synthase [8] were 2.24 µM (active) and 2.08 µM (active), respectively.

As for `O=[N+]([O-])c1cc(-c2csc(NCCc3nc4cc(C(F)(F)F)ccc4n3CCCO)n2)ccc1Cl`, the IC50 was 5.17 µM (active) at Fatty acid synthase [7] and 3.93 µM (active) on Fatty acid synthase [8].

For the compound `S=C(NCCc1ccccc1)N1Cc2cc(Br)ccc2-n2nncc2C1`, the half-maximal inhibitory concentration (IC50) was 12.1 µM (active) at Fatty acid synthase [7] and 7.04 µM (active) on Fatty acid synthase [8].

For `CC(=O)Nc1ccc(S(=O)(=O)N2CN(c3ccc(C)cc3)c3nc4ccccc4nc32)cc1`, in the assay with Vero, the 50% cytotoxic concentration (CC50) is > 25 µM (active).

For `CCOC(CNCc1cc(C)c2[nH]c3ccccc3c2c1C)OCC`, the CC50 in the assay with Vero was 22.6 µM (active).

In the case of `CN(Cc1cnn(-c2ccccc2)c1)C(=O)c1ccc(S(=O)(=O)NCc2ccco2)cc1`, the 50% cytotoxic concentration (CC50) in the assay on Vero is 14.4 µM (active).

For `C[C@@H]1CN([C@H](C)CO)C(=O)c2cc(NC(=O)Nc3ccc(C(F)(F)F)cc3)ccc2O[C@@H](C)CCCCO[C@H]1CN(C)Cc1ccc(Cl)c(Cl)c1`, the AC50 on Paired box protein Pax-8 is 6.74 µM (active).

Consider `OC[C@H]1[C@@H](c2ccc(-c3ccc(F)cc3)cc2)[C@@H]2CN(Cc3ccccn3)CCCCN12`, for which the AC50 in [12] was 22 µM (active); in assay [13] it was 19.1 µM (active); in [14] it was 37.5 µM (active).

As to `C[C@H](CO)N1C[C@H](C)[C@H](CN(C)C(=O)Cc2ccccc2)OCCCC[C@H](C)Oc2ccc(NC(=O)Nc3ccc(C(F)(F)F)cc3)cc2C1=O`, the AC50 was 35 µM (active) in assay [13] and 4.79 µM (active) in assay [14].

Regarding `COc1cccc(/C=N/NC(=O)c2ccc([N+](=O)[O-])cc2Cl)c1O`, the EC50 is 19.1 µM (active) in the assay “cells [1]” and 172 µM (active) in the assay “cells [2]”.

For `CCOC(=O)COc1ccc2c(=O)cc(-c3ccccc3)oc2c1` [EFLOXATE], in the assay “cells [10]”, the half-inhibitory concentration (IC50) is < 0.1 µM (active).
